Publication PMC5038302 (Antimicrobial Agents and Chemotherapy, 2016)
Where “and” joins values, the source holds several entries; their conditions need not be identical. Equal entries are not always repeated. Where two headings read alike, the source gives them in different places.

Experiments:
NDM-1 [1] = molecular target: T1, NDM-1 (Klebsiella pneumoniae, UniProt C7C422); test: biochemical
VIM-4 [2] = molecular target: T2, VIM-4 (Pseudomonas aeruginosa, UniProt Q8KRJ3); conditions: LC-MS
NDM-1 [3] = molecular target: T1, NDM-1; format: binding; conditions: avibactam 4 mM, Tris-D11 50 mM pH 7.5
SPM-1 [4] = format: biochemical
NDM-1 [5] = molecular target: T1, NDM-1; conditions: NDM-1 0.022 mM; still extremely slow by normal β-lactamase standards
FEZ-1 [6] = molecular target: T3, FEZ-1 (Fluoribacter gormanii, UniProt Q9K578); test: biochemical; design: species or system Fluoribacter (Legionella) gormanii; conditions: Approximate Ki (= Km) value, from a single avibactam concentration (1 mM), ceftazidime 30 µM substrate
T3 sequence (Q9K578 21-282 limits assumed): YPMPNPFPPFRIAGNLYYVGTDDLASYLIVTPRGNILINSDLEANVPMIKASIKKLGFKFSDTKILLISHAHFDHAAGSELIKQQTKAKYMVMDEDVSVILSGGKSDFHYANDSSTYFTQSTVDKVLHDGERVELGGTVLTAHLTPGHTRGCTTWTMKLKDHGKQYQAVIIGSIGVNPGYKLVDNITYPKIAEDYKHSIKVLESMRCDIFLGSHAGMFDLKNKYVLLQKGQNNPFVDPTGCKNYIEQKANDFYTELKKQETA

VIM-2 [7] = molecular target: T4, VIM-2 (Escherichia coli, UniProt Q5U7L7); test: biochemical
IMP-1 [8] = molecular target: T5, IMP-1 (Serratia marcescens, UniProt P52699); test: biochemical; conditions: Approximate Ki (= Km) value, from a single avibactam concentration (1 mM), ceftazidime 30 µM substrate
T5 sequence (P52699 19-246 limits assumed): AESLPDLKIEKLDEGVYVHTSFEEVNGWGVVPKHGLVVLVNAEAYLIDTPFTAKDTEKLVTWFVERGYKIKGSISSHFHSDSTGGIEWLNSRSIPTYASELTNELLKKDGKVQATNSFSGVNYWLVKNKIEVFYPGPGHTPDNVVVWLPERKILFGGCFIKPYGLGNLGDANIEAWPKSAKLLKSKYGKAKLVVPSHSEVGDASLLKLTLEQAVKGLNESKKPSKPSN

VIM-4 [9] = molecular target: T2, VIM-4; conditions: 1 mM avibactam (600 μl), 12 μg VIM-4, 5 mM HEPES pH 7.5, 20 μM ZnCl2, 4 h at 37°C
VIM-4 [10] = molecular target: T2, VIM-4; format: biochemical; conditions: read-out: Approximate Ki value (reflecting Km), from a single avibactam concentration (1 mM), ceftazidime 30 µM substrate
VIM-4 [11] = molecular target: T2, VIM-4; conditions: VIM-4, 240 min, Raman spectroscopy
VIM-4 [12] = molecular target: T2, VIM-4; conditions: still extremely slow by normal β-lactamase standards
VIM-4 [13] = molecular target: T2, VIM-4; format: binding; conditions: VIM-4 80 μM, avibactam 4 mM, Tris-D11 50 mM pH 7.5
[14] = Stability of avibactam in buffer without enzyme (NMR control); conditions: buffer (Tris-D11 50 mM, pH 7.5)
FEZ-1 [15] = molecular target: T3, FEZ-1; format: binding, Fluoribacter (Legionella) gormanii; conditions: FEZ-1 80 μM, avibactam 4 mM, Tris-D11 50 mM pH 7.5
CphA = CphA (Aeromonas hydrophila, UniProt P26918); format: binding; conditions: CphA 80 μM, avibactam 4 mM, Tris-D11 50 mM pH 7.5
Sequence of CphA (P26918 28-254): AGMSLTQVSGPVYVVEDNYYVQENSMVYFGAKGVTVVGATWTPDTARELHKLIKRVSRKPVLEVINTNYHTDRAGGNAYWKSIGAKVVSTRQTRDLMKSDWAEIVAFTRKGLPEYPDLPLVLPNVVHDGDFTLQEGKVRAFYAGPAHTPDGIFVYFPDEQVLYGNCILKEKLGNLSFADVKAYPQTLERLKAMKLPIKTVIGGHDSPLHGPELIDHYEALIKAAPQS

VIM-2 [16] = molecular target: T4, VIM-2; format: binding; conditions: VIM-2 80 μM, avibactam 4 mM, Tris-D11 50 mM pH 7.5
SPM-1 [17] = format: binding
Procedure: (§1) Typical experimental parameters for Carr-Purcell-Meiboom-Gill (CPMG) NMR spectroscopy were the following: total echo time, 40 ms; relaxation delay, 2 s; and number of transients, 264 ([31]). The PROJECT-CPMG sequence (90°x-[τ-180°y-τ-90°y-τ-180°y-τ]n-acq) was applied. Water suppression was achieved by presaturation. Prior to Fourier transformation, the data were multiplied with an exponential function with 3-Hz line broadening.
(§2) For ^1H excitation sculpting suppression with perfect echo NMR experiments, spectra were typically obtained using 256 scans and a relaxation delay of 1 s ([32]). A 2-ms sinc pulse was used for water suppression. Prior to Fourier transformation, data were multiplied with an exponential function with 2-Hz line broadening.
(§3) For water-ligand observed gradient spectroscopy (wLOGSY) analyses, typical experimental parameters were the following: mixing time, 1 s; relaxation delay, 2 s; number of transients, 256 ([33]). Solvent excitation was achieved using a 16-ms 180° selective rectangular shape pulse with 1,000 points (Squa100.1000) set at the H2O frequency. Water suppression was achieved by a 2-ms sinc pulse (Sinc1.1000) at the H2O frequency.

BcII = BcII (Bacillus cereus, UniProt P04190); format: binding; conditions: BcII 80 μM, avibactam 4 mM, Tris-D11 50 mM pH 7.5
Sequence of BcII (P04190 31-257): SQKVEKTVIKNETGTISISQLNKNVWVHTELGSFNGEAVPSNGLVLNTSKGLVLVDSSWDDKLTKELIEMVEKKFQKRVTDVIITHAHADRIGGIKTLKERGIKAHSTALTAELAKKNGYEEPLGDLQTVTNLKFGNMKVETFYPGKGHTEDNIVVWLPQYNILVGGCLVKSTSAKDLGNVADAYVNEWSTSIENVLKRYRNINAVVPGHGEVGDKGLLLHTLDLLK
Procedure: as §1, §2, §3

VIM-2 [18] = molecular target: T4, VIM-2; conditions: cited from earlier work
NDM-1 [19] = molecular target: T1, NDM-1; conditions: cited from earlier work
SPM-1 [20] = tested on: SPM-1; design: method as in PMID 12543663; conditions: reported conditions different, read-out: ceftazidime Km; cited from earlier work
IMP-1 [21] = molecular target: T5, IMP-1; conditions: cited from earlier work
[22] = tested on: all of the MBLs (VIM-2, VIM-4, SPM-1, NDM-1, IMP-1, FEZ-1); test: Complete time courses of ceftazidime hydrolysis; format: biochemical; conditions: all MBLs incl. VIM-4; concluded from quasi first-order complete time courses, 5 mM HEPES pH 7.5
FEZ-1 [23] = molecular target: T3, FEZ-1; design: method as in PMID 11257043; conditions: reported conditions different, read-out: ceftazidime Km; cited from earlier work
[24] = tested on: NC(=O)[C@@H]1CC[C@@H]2CN1C(=O)N2OS(=O)(=O)O; test: purified protein, by the assay type

T1 sequence (C7C422 43-270 limits assumed, looked up, species assumed): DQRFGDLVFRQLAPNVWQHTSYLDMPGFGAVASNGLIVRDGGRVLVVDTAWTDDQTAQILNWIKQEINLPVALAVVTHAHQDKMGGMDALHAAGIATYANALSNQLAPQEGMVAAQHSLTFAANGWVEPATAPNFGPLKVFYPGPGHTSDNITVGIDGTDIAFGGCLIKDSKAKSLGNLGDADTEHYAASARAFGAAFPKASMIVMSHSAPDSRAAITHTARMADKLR

Compound: NC(=O)[C@@H]1CC[C@@H]2CN1C(=O)N2OS(=O)(=O)O [avibactam]
- Ki (NDM-1 [1]): > 5000 µM
- Reduction of the avibactam MS signal after VIM-4-catalyzed hydrolysis (VIM-4 [2]): ~50 fold
- Binding by 1H CPMG NMR (NDM-1 [3]): weak binding
- Effect of avibactam on SPM-1-catalyzed ceftazidime hydrolysis (SPM-1 [4]; 1 mM avibactam, ceftazidime 30 µM): apparent activation
- Residual activity (SPM-1 [4]; ceftazidime (30 µM) in the presence of 1 mM avibactam, HEPES buffer, 30°C): 140 + 15%
- Avibactam hydrolysis observed by NMR (NDM-1 [5]): more efficient hydrolysis
- Ki (FEZ-1 [6]): 2300 µM and ~2300 µM
- Ki (VIM-2 [7]): > 5000 µM
- Ki (IMP-1 [8]): 1700 µM and ~1700 µM
- Avibactam hydrolyzed (from absorbance at 230 nm) (VIM-4 [9]): ~70%
- Ki (VIM-4 [10]): > 5000 µM
- Amount of sulfate produced from avibactam (of the total avibactam product) (VIM-4 [11]): < 15%
- Avibactam hydrolysis observed by NMR (VIM-4 [12]): more efficient hydrolysis
- Binding by 1H CPMG NMR (VIM-4 [13]): weak binding
- Hydrolysis of avibactam without enzyme [14]: did not lead to detectable product levels
- Binding by 1H CPMG NMR (FEZ-1 [15]): weak binding
- Binding by 1H CPMG NMR (CphA): did not observe binding
- Binding by 1H CPMG NMR (VIM-2 [16]): weak binding
- Binding by 1H CPMG NMR (SPM-1 [17]; SPM-1 80 μM, avibactam 4 mM, Tris-D11 50 mM pH 7.5): weak binding
- Binding by 1H CPMG NMR (BcII): did not observe binding

Compound: CC(C)(O/N=C(\C(=O)N[C@@H]1C(=O)N2C(C(=O)[O-])=C(C[n+]3ccccc3)CS[C@H]12)c1csc(N)n1)C(=O)O [ceftazidime]
- Km (VIM-2 [18]): 72 µM
- Km (NDM-1 [19]): 180 µM
- Km (SPM-1 [20]): 46 µM
- Km (IMP-1 [21]): 46 µM
- Km [22]: > 30 µM
- Km (FEZ-1 [23]): > 1000 µM

Compound: NC(=O)[C@@H]1CC[C@@H](NOS(=O)(=O)O)CN1 [hydrolyzed product(s)]
- Binding of products of avibactam by wLOGSY NMR (SPM-1 [17]; SPM-1, hydrolyzed product NOE sign opposite to that of SPM-1 (free ligand)): no evidence for binding

Compound: FEZ-1 (Fluoribacter gormanii)
- kcat/Km [24]: 70 ± 15 M⁻¹ s⁻¹
- kcat/Km ([24]; pH 7.5, 30.0 °C): 70 ± 15 M⁻¹ s⁻¹
